Data reported in patent US12337005B2, “Methods of treating thrombosis” (UNIVERSITY OF IOWA RESEARCH FOUNDATION, priority 2020, dated 2025).

Legend:
Type in all cases: cell-based
PKM2 dimers = molecular target: T1, PKM2 dimers (Homo sapiens, UniProt P14618); assay: Native Western blot of PKM2 dimer and tetramer in stimulated human platelets; conditions: human platelets stimulated with convulxin (100 ng/ml) or thrombin (0.1 U/mL); vs vehicle
T1 construct: decreased PKM2 dimers in the human platelets stimulated with convulxin or thrombin; endogenous in cells; host or cells: human platelets from healthy volunteers
T1 sequence (P14618 2-531 limits assumed): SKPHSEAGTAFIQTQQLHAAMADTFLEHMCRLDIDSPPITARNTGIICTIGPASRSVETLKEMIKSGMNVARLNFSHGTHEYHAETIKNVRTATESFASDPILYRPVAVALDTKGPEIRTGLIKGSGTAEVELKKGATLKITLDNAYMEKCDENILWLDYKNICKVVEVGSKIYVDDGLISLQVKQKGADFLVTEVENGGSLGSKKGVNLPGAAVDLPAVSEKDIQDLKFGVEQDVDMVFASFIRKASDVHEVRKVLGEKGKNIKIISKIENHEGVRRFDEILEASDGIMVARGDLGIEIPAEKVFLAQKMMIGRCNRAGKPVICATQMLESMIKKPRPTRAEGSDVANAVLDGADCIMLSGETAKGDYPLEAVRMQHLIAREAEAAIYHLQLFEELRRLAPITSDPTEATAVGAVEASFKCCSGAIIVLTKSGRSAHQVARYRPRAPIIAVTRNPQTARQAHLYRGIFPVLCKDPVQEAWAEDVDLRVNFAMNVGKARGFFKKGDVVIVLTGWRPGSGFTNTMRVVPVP
Description: To obtain human platelets, blood was collected from healthy volunteers free from antiplatelet medication. Informed consent was taken. Platelets were prepared as described. Briefly, blood was collected in tubes containing anticoagulant citrate dextrose solution A and centrifuged at 180 g for 20 min. After addition of apyrase (0.6 U/ml) to PRP, platelets were sedimented by centrifugation at 800 g for 15 min. Cells were washed in buffer A (20 mM HEPES, 138 mM NaCl, 2.9 mM KCl, 1 mM MgCl2, 0.36 mM NaH2PO4, 1 mM EGTA (ethylene glycol tetraacetic acid), supplemented with 5 mM glucose, pH 6.2). Platelets were finally resuspended in buffer B (pH 7.4), which was the same as buffer ‘A’ but without EGTA and apyrase.
Platelet proteins were separated on 4-20% SDS-PAGE (sodium dodecyl sulfate-polyacrylamide gel electrophoresis) gradient gels and electrophoretic transferred to PVDF (polyvinylidene fluoride) membrane by using Bio-Rad western blotting system. For PKM2 dimer and tetramer study 6% native gels are used. Membranes were blocked with 5% BSA or skimmed milk in 10 mM Tris-HCl, 150 mM NaCl, pH 8.0 (TBS) containing 0.05% Tween-20 for one hour at room temperature. […] Blots were developed using enhanced chemiluminescence and quantified using Image J software from NIH (Bethesda, MD, USA).

human platelets [1] = assay: Glucose uptake assay, human platelets; conditions: human platelets stimulated with convulxin or thrombin; ML265 pre-treated (50 and 100 μM)
Description: (§1) Glucose uptake was determined in activated versus non-activated platelets using 10 mM ^14C-2-deoxy-glucose. Washed platelets (2×10^8/mL) treated with vehicle (DMSO) or ML265 (50 and 100 μM) were incubated in 1× Tyrode buffer and stimulated with convulxin or thrombin for 10 minutes, placed on ice and then centrifuged at 4000 rpm for 5 minutes. The pellets were washed with cold 1×PBS and solubilized in 1N NAOH. Radioactive counts were determined using a Perkin Elmer TriCarb 2800TR liquid scintillation counter.

mouse platelets = assay: Glucose uptake assay, mouse platelets; conditions: mouse platelets stimulated with convulxin or thrombin
Description: as §1

human platelets [2] = assay: Thromboxane (TxB2) assay, human platelets; conditions: convulxin-stimulated human platelets pre-treated with ML265
Description: The TxB2 assay was done. Briefly, PRP or washed platelets (2×10^8 platelets/mL) was stimulated with convulxin or thrombin for 3 minutes utilizing an aggregometer, and the reaction was stopped by quickly freezing the sample in a dry ice-methanol bath. Before performing the TXB2 measurement assay, samples were thawed and centrifuged at 15,000 g for 3 minutes. The supernatants were diluted 1:50 with assay buffer and levels of TxB2 (a stable metabolite of TxA2) were determined in triplicate using an immunoassay kit (Abcam Thromboxane B2 enzyme-linked immunosorbent assay kit) according to the manufacturer's instructions.

human platelets [3] = assay: Metabolomic analysis of human platelets
Description: Human washed platelets (3×10^8 cells in 300 μl) were treated with ML265 (100 μM) or DMSO for 10 mins and stimulated by convulxin for 10 minutes. Cells were then fixed by adding 80% methanol and sent to Metabolon Inc. (Morrisville, NC, USA) for metabolomic analysis. Briefly, samples were homogenized and subjected to methanol extraction then split into aliquots for analysis by ultra-high-performance liquid chromatography/mass spectrometry (UHPLC/MS) in the positive (two methods) and negative (two methods) mode. Metabolites were then identified by automated comparison of ion features to a reference library of chemical standards followed by visual inspection for quality control as previously described (Dehaven et al., 2010). Metaboanalyst 4.0 feature PatternHunter was used for finding the metabolites showing correlation (≥0.5) with specific trends (Xia et al., 2009). The metabolites obtained after PatternHunter analysis have been represented as a heatmap. Furthermore, to understand the functional role of the changes in concentration of these metabolites, the pathway analysis was performed using Metaboanalyst 4.0. The Global Ancova and Relative-betweenness Centrality topological measures were used to identify the highly impacted pathways with KEGG human metabolic library as the reference. The False Discovery Rate corrected pathway terms with P≤0.05 were considered significant.

murine platelets = assay: P-selectin expression (α-granule secretion), mouse platelets; conditions: stimulus-activated mouse platelets pretreated with ML265
Description: Platelets (1×10^8 cells in 100 μl) were pre-incubated for 10 min either in presence or absence of ML265 (50 and 100 μM) then stimulated by convulxin or TRAP without stirring. Following this, platelets were labeled with PE-labeled anti-CD61 antibody and FITC conjugated anti-CD62P antibody. The platelet samples were incubated for 30 min in the dark at room temperature and analyzed on the flow cytometer (FACS Calibur, Becton Dickinson). An amorphous region (gate) was drawn to differentiate the platelets from the noise and multi-platelet particles. After compensation for FITC and PE, CD61-positive 10,000 events were collected for each sample.

human platelets [4] = assay: ATP secretion from dense granules, human platelets; conditions: stimulus-activated human platelets pretreated with ML265
Description: Platelet rich plasma (PRP) or washed platelets (2×10^8/ml) treated with vehicle (DMSO) or ML265 (50 and 100 μM) were stirred (1200 rpm) at 37° C. for 2 min in a whole blood/optical lumi-aggregometer (Chrono-log; model 700-2) before the addition of agonists (convulxin, collagen, thrombin, PAR4, TRAP (PAR1 agonist) or adenosine diphosphate [ADP]). Aggregation was measured as percent change in light transmission, where 100% refers to transmittance through the blank sample (PRP/Buffer). Platelet dense granule secretion was determined by measuring the release of ATP using luciferin-luciferase reagent. To examine the effect of ML265 on ATP secretion, washed platelets were pretreated with vehicle (DMSO) or ML265 (50 and 100 μM) for 10 minutes before stimulation with various agonists. ATP release was performed in a lumi-aggregometer (Chrono-log; model 700-2) at 37° C.

human platelets [5] = assay: Clot retraction, human platelet-rich plasma; conditions: thrombin stimulation, ML265 50 and 100 μM, dose-dependent
Description: To measure thrombin-stimulated fibrin clot retraction PRP was treated with ML265 (50 and 100 μM) or vehicle control (DMSO) for 10 minutes. Tyrode buffer was added to test tubes, along with red blood cells, to allow visualization of the clot. This was followed by the addition of PRP. Clot formation was initiated by adding thrombin (final concentration 0.25 U/ml) to the test tubes. Photographs were taken every 15 minutes and the assay was terminated after 60 minutes at which time the clot in the vehicle-treated samples were seen to have retracted completely. Clot area was analyzed using Image J software from NIH (Bethesda, MD, USA).

[6] = ML265 100 μM, convulxin-stimulated human platelets

Cn1c2cc([S+](C)[O-])sc2c2cnn(Cc3cccc(N)c3)c(=O)c21 (stereo not shown) [ML265, 6-[(3-aminophenyl)methyl]-4,6-dihydro-4-methyl-2-(methylsulfinyl)-5H-thieno[2′,3′:4,5]pyrrolo[2,3-d]pyridazine-5-one]
PKM2 dimers (PKM2 dimers): decreased | glucose uptake (human platelets [1]): significantly decreased | glucose uptake (mouse platelets): reduced | levels of TxB2 (stable metabolite of TxA2) (human platelets [2]): reduced | levels of arachidonic acid and 12-HETE (human platelets [3]; [6]): altered | metabolites in the glycolytic pathway, including glucose uptake and lactate production (human platelets [3]; [6]): altered | level of free fatty acids and palmitate (human platelets [3]; ML265 100 μM, human platelets): altered | palmitate (human platelets [3]; ML265 pre-treated activated human platelets compared to control): downregulated | arachidonate level (human platelets [3]; convulxin-stimulated human platelets pre-treated with ML265, vs convulxin alone): further decrease | glycerophospholipid metabolism (human platelets [3]; pre-treatment of human platelets with ML265): downregulated | α-granule secretion (P-selectin exposure) (murine platelets): significant decrease | dense-granule secretion (ATP release) (human platelets [4]): significant decrease | clot retraction (human platelets [5]): significantly inhibited
